Data reported in US20260257987A1, “COMPOUNDS AND METHOD FOR UPREGULATION OF P53 THROUGH INDUCTION OF MDM2 DEGRADATION” (Georgia State University Research Foundation, Inc., priority 2022, published 2026).

Tests used:
[1] = Thiol (NAC) reactivity study by HPLC; assay type: physicochemical
Experimental: HPLC was performed on Shimadzu LC-20AT HPLC system. Condition: mobile phase A: water with 0.05% TFA; B: acetonitrile with 0.05% TFA; gradient: 5-95% B, 0-10 min; […]; 5% B 12.1-15 min. Column: C18, 3.5 μm, 4.6×150 mm; UV detector monitored at 254 nm. For the thiol reactivity assay, a 0.3 mM solution of AQ-analogs was prepared in 0.5 mL PBS: MeOH (80:20) and warmed at 37° C. Next, 25 μL of NAC (from 30 mM stock solution in PBS) was added to the above solution. The resultant solution had final concentrations of 0.3 mM AQ-analogs and 1.5 mM NAC. 20 μL of the reaction mixture was injected into the HPLC at the designated time intervals. The area percentage values were determined via the integration of the area under the curve (AUC) of the chromatogram.

[2] = system: RS4;11 cells (wild-type p53); assay: Cytotoxicity test of BW-AQ-365 (CCK-8) in RS4;11 cells; assay type: cell-based; conditions: for IC50: Homo sapiens, RS4
Experimental: Cell viability was assessed by using Cell Counting Kit-8 (CCK-8, Dojindo, Japan). RS4;11 cells (wild-type p53) were cultured in RPMI-1640 medium (Corning, USA). The culture mediums were supplemented with 10% fetal bovine serum (Corning, USA) and 100 unit/ml penicillin, and […] streptomycin. […] Compounds were dissolved in DMSO (molecular biology grade, Sigma-Aldrich, USA) to make 10 mM stock solutions, which were serially diluted with the culture medium to various concentrations (final DMSO concentration=0.5%). A culture medium (50 μL) containing BW-AQ-365 was added directly to the cell suspension in each well immediately after seeding. After incubation for 24-72 h at 37° C. in a humidified atmosphere with 5% CO2, 10 μL of CCK-8 solution was added to each well, and the plate was incubated for an additional 2-4 h at 37° C. before measuring the optical density at 450 nm with a microplate reader (PerkinElmer Victor 2, USA). The cell viability of each well was calculated as the percentage of the untreated control according to the manufacturer's manual. All tests were performed in triplicates, and IC50 values were determined by non-linear regression using GraphPad Prism 9.0.

[3] = system: EU-1 (in-house cell line); assay: Cytotoxicity test of BW-AQ-365 (CCK-8) in EU-1 cells; assay type: cell-based; conditions: EU-1, 25000 cells/well, 24 h
[4] = system: MDM2 level in RS4;11 cells; assay: Preliminary study of MDM2 level in RS4;11 cells; assay type: cell-based

For `CC(=O)CCCOc1cccc2c1C(=O)c1c(OCCCC(C)=O)cc(NC(=O)CN=[N+]=[N-])cc1C2=O` [BW-AQ-365, 2-azido-N-(9,10-dioxo-4,5-bis ((4-oxopentyl)oxy)-9,10-dihydroanthracen-2-yl)acetamide], the “reactivity towards thiol, in words” value [1] was “less reactivity towards thiol”, the IC50 ([2]; RS4-11, 48 h, 11, 10000 cells/well, 48 h) was 190 ± 10 nM and the IC50 ([2]; RS4-11, 48 h, 11, 25000 cells/well, 48 h) was 610 ± 30 nM. For the same compound, the IC50 ([2]; RS4-11, 72 h, 11, 25000 cells/well, 72 h) was 5500 ± 320 nM, the “anticancer activity in RS4;11 cells compared with BW-AQ-295” value ([2]; RS4;11 cells) was “more potent than BW-AQ-295” and the IC50 [3] was 1550 ± 440 nM. For the same compound, the “MDM2 level in RS4;11 cells” value [4] was “dose-dependently decrease MDM2 level”.
